{
  "source": "patent US9078907B2",
  "about": "“Immunoregulator compounds” (Universita Degli Studi Di Roma “Tor Vergata”, priority 2001, dated 2015)",
  "key": {"[1]": {"system": "macrophages", "test": "ROI generation by dichlorofluorescein (DCF) flow cytometry", "format": "cell-based, human", "conditions": "lipopolysaccharide stimulated cells, positive control", "experimental": "Because dichloro fluorescein (DCF) is a fluorochrome obtained from reaction of non fluorescent 2, 7-dichloro fluorescein diacetate (DCFH) with various oxidants, analysis thereof is used to detect cellular oxidative stress and amount of oxygen reactive intermediates (ROI) produced by phagocytic cells. In the used model, this analysis is employed in order to monitor the D-erythro-sphingosine 1-phosphate (S1P) modulated ROI production from macrophages. Macrophages were incubated for 90 minutes with sphingosine 1-phosphate at 0.5 μM, 5 μM, 10 μM and 50 μM concentrations. After the incubation 100 μl of 0.4 μM DCFH (Calbiochem) were added and incubated for at least 30 minutes. Finally, cells were washed with PBS and analysed using FACScan flow cytometer from Becton Dickinson."}, "[2]": {"system": "macrophage PLD", "format": "cell-based, human"}, "[3]": {"system": "Mycobacterium smegmatis", "test": "Colony forming units of M. smegmatis in differentiated THP-1 cells", "format": "cell-based", "conditions": "THP-1, M. smegmatis, S1P 5 μM; ethanol 0.3%, 0.03%, 0.003% (dose dependent) or calphostin C 10 nM", "experimental": "Human monocytic THP-1 leukemia line cells were used in this example as a model for macrophage response. In order to obtain macrophage phenotype, 5×10^5/ml THP-1 cells were induced to differentiate by 48 hours incubation in the presence of 20 ng/ml Phorbol Myristate Acetate (PMA). Differentiated THP-1 cells (dTHP-1) were then centrifuged three times and suspended in complete medium [RPMI 1640 (Gibco BRL) supplemented with 10% fetal bovine serum (Gibco BRL), 5 mM L-glutamine (Invitrogen), 1 mM sodium pyruvate (Gibco BRL) and non-essential amino acids (Euroclone)]. dTHP-1 were then infected for 3 hours with M. smegmatis at the multiplicity of infection of bacterium/cell 50:1. Following infection cells were washed three times with RPMI 1640 and incubated in complete medium at 37° C. for further 1, 12 and 24 hours in the presence or absence of sphingosine-1 phosphate used at the concentration of 5 μM.\nIn order to assess the role of macrophage PLD activity in sphingosine 1-phosphate induced mycobacterial growth control, following the infection the cells were cultured in the presence of various concentrations of ethanol (0.3%, 0.03%, 0.003%) or 10 nM calphostin C. […] Inhibiting activity of calphostin C is exploited by targeting PLD catalytic domain (Sciorra V. A., Hammond S. M., Morris A. J. Potent direct inhibition of mammalian phospholipase D isoenzymes by calphostin c. Biochemistry 2001; 40: 2640-46). Just after the infection and at the indicated time points, cells were 1) lysed using cold PBS containing 0.1% saponin (Sigma, MA, USA), ii) serially diluted in PBS containing 0.01% Tween-80 (Merck, Darmstadt, Germany) and iii) plated in triplicate in Middlebrook 7H10 medium (Becton Dickinson, MD, USA) supplemented with 10% OADC formulation (0.5 mg/ml oleic acid, 50 mg/ml albumin, 20 mg/ml dextrose, 0.04 mg/ml catalase and 8.5 mg/ml sodium chloride). M. smegmatis colonies were enumerated after incubation for 3 days at 37° C."}},
  "data": [
    {"compound": "lipopolysaccharides [reference compound]", "values": [
      {"measurement": "DCF positive cells after stimulation", "setting": "[1]", "value": "increase"}
    ]},
    {"compound": "IFN-γ", "values": [
      {"measurement": "effect of IFN-γ pre-treatment on PLD activity of infected macrophages", "setting": "[2]", "value": "does not modify"},
      {"measurement": "effect of IFN-γ treatment before and/or after infection on levels of macrophage PLD activity", "setting": "[2]", "value": "does not appear to modify"}
    ]},
    {"compound": "CCO", "note": "[ethanol]", "values": [
      {"measurement": "mycobacterial replication after PLD inhibitor treatment of S1P treated cells", "setting": "[3]", "value": "increase"}
    ]},
    {"compound": "calphostin C", "values": [
      {"measurement": "mycobacterial replication after PLD inhibitor treatment of S1P treated cells", "setting": "[3]", "value": "increase"}
    ]}
  ]
}
